Measurements as given in US6794386B2, “β-amino acid compounds as integrin antagonists” (Bayer Aktiengesellschaft, priority 2000, dated 2004).

Molecular target: T1, VLA-4 (Homo sapiens, UniProt P05556+P13612)
T1 construct: host or cells: Jurkat clone E6-1
Test: Adhesion of Jurkat cells to immobilized VCAM-1 (domains 1-3)
Format: cell-based
Set-up: scale not given here
Conditions: adhesion of CFSE-labeled Jurkat cells to recombinant human VCAM-1 (domains 1-3) coated plates; compounds as yielded by solid phase synthesis, purity about 40-90%
Procedure: In Vitro Assay: Adhesion of Jurkat Cells to Immobilized VCAM-1 (Domains 1-3).
Preparation of Fluorescence Labeled Jurkat Cells:
Jurkat cells (American Type Culture Collection, Clone E6-1, ATCC TIB-152) were cultured in RPMI 1640 medium (Nikken Bio Medical Laboratory, CM1101) supplemented with 10% fetal bovine serum (Hyclone, A-1119-L), 100 U/ml penicilin (Gibco BRL, 15140-122) and 100 μg/ml streptomycin (Gibco BRL, 15140-122) in a humidified incubator at 37° C. with 5% CO2.
Jurkat cells were incubated with phosphate balanced solution (PBS, Nissui, 05913) containing 25 μM of 5(-and-6)-carboxyfluorescein diacetate, succinimidyle ester (CFSE, Dojindo Laboratories, 345-06441) for 20 min at room temperature while gently swirling every 5 min. After centrifugation at 1000 rpm for 5 min, the cell pellet was resuspended with adhesion assay buffer at a cell density of 2×10^6 cells/ml. The adhesion assay buffer was composed of 24 mM Tris-HCl (pH 7.4), 137 mM NaCl, 27 mM KCl, 4 mM glucose, 0.1% bovine serum albumin (BSA, Sigma, A9647) and 2 mM MnCl2.
Preparation of VCAM-1 (Extracellular Domains 1-3):
Complementary DNA (cDNA) encoding 7-domain form of VCAM-1 (GenBank accession #M60335) was obtained using Rapid-Screen™ cDNA library panels (OriGene Technologies, Inc) at Takara Gene Analysis Center (Shiga, Japan). The primers used were 5′-CCAAGGCAGAGTACGCAAAC-3′ (sence) and 5′-TGGCAGGTATTATTAAGGAG-3′ (antisense). PCR amplification of the 3-domain VCAM-1 cDNA was perform using Pfu DNA polymerase (Stratagene) with the following sets of primers: (U-VCAMd1-3) 5′-CCATATGGTACCTGATCAATTTAAAATCGAGACCACCCCAGAA-3′; (L-VCAMd1-3) 5′-CCATATAGCAATCCTAGGTCCAGGGGAGATCTCAACAGTAAA-3′. PCR cycle was 94° C. for 45 sec, 55° C. for 45 sec, 72° C. for 2 min, repeating 15 cycles. After the purification of the PCR product, the fragment was digested with KpnI-AvrII. The digested fragment was ligated into pBluescript IISK(−) (Strategene), which was linealized by digesting with KpnI-XhoI. The ligation was followed by transformation to a Dam/Dcm methylase-free E. coli strain SCS110 (Strategene) to create the donor plasmid pH7. To direct VCAM-1 molecule into the insect cell secretory pathway, the VCAM-1 coding sequence was fused to signal peptide sequence of honeybee melittin. The resulting melittin-VCAM fusion was placed in correct orientation to the baculoviris polyhedrin promoter. Baculovirus transfer vector containing first 3-domain form VCAM-1 (pH10) was constructed by ligation of 0.9 kb fragment from AvrII/Klenow/BclI digests of pH7 into SalI/Klenow/BamHI digests of pMelBacB (Invitrogen). Recombinant baculovirus was generated by using Bac-N-Blue™ Transfection kit (Invitrogen) according to the manufacture's instruction. The recombinant virus was amplified by infection to High-Five™ insect cells for 5-6 days, and virus titer was determined by plaque assay.
High-Five™ insect cells were pelleted in a 225 ml conical tube by centrifugation at 1000 rpm for 5 min After discarding the supernatant, the pellet was resuspended in 1.5×10^9 pfu (MOI=5) of high-titer virus solution, followed by incubation for 1.5 hours at room temperature. The cells were pelleted again and washed once in fresh Express Five™ serum free medium. The cells were pelleted again and finally, resuspended in 200 ml of fresh Express Five™ medium, transferred to a 1,000 ml shaker flask, and incubated in a shaker at 27° C., 130 rpm, for 48 hours before the culture supernatant was collected. The purification of 3-domain form of VCAM-1 from the culture supernatant was performed by one-step anion exchange chromatography. Protein concentration was determined by using Coomassie protein assay reagent (Pierce) according to the manufacture's instruction.
Preparation of Microtiter Plates:
Recombinant human VCAM-1 (extracellular domains 1-3) was dissolved at 0.5 μg/ml in PBS. […]

T1 sequence (P13612 34-1032): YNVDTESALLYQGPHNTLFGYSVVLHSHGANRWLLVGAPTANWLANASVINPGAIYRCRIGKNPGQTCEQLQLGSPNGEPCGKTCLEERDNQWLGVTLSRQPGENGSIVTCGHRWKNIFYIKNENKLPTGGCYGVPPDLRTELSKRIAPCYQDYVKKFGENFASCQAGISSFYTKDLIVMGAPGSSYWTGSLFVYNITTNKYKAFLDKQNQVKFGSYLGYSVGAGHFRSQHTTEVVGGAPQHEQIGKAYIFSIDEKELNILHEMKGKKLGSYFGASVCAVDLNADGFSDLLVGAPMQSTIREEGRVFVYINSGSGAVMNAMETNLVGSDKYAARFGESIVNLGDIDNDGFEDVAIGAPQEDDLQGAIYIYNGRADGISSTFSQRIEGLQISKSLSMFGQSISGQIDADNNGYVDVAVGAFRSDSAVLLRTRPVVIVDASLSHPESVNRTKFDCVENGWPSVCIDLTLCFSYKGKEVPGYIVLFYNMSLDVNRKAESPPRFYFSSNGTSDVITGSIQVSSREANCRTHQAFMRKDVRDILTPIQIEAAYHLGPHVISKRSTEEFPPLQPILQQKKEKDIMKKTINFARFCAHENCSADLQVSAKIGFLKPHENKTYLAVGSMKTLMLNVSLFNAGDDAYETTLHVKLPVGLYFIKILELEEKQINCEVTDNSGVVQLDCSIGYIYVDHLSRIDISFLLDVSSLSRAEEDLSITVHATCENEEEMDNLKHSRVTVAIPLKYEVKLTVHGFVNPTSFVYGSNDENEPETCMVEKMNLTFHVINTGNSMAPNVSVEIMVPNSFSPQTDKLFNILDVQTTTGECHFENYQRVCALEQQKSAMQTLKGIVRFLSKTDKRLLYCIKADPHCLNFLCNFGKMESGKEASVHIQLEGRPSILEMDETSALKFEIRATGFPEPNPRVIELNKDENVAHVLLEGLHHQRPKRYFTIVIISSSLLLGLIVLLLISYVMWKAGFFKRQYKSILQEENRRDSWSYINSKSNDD
T1 sequence (P05556 21-798): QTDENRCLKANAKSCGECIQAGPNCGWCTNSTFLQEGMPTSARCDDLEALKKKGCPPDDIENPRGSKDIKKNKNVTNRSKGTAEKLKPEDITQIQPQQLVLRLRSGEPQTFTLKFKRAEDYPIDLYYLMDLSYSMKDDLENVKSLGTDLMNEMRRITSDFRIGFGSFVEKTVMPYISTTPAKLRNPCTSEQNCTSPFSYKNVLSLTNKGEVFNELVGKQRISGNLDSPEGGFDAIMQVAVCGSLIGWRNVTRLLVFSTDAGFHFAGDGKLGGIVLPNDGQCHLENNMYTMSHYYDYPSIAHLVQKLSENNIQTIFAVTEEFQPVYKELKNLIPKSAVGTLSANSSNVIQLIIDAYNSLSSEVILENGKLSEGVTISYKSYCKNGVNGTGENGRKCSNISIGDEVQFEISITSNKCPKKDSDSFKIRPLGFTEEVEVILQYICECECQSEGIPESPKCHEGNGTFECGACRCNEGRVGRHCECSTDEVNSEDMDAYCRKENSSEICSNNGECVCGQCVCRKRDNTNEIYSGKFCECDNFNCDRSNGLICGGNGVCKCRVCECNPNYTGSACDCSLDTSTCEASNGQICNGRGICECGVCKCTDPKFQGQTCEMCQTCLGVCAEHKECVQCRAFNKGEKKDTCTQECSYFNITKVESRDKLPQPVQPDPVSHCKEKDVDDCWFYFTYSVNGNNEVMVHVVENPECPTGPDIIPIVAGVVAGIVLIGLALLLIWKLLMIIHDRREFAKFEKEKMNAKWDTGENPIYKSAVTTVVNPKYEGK

IC50 | SMILES
C-D | Cc1ccc(-c2ccc(C[C@H](NC(=O)C3CCCN(c4ncnc(NC5CCCCC5)c4F)C3)C(=O)O)cc2)cc1 (stereo partly drawn) [Example 2.5]
B-C | Cc1ccc(-c2ccc(C[C@H](NC(=O)C3CCCN(c4ncnc(N5CCNCC5)c4F)C3)C(=O)O)cc2)cc1 (stereo partly drawn) [Example 2.9]
C-D | O=C(N[C@@H](Cc1ccc(-c2ccc(Cl)c(Cl)c2)cc1)C(=O)O)C1CCCN(c2ncnc(NC3CCCCC3)c2F)C1 (stereo partly drawn) [Example 2.42]
C-D | Cc1ccc(-c2ccc(C[C@H](NC(=O)C3CCCN(S(=O)(=O)Cc4ccccc4)C3)C(=O)O)cc2)cc1 (stereo partly drawn) [Example 1.73]
C-D | O=C(N[C@@H](Cc1ccc(-c2ccccc2)cc1)C(=O)O)C1CCCN(S(=O)(=O)c2c(Cl)cccc2Cl)C1 (stereo partly drawn) [Example 1.59]
C-D | Cc1ccccc1-c1ccc(C[C@H](NC(=O)C2CCCN(c3ncnc(NC4Cc5ccccc5C4)c3F)C2)C(=O)O)cc1 (stereo partly drawn) [Example 2.31]
C-D | COC(=O)c1ccccc1S(=O)(=O)N1CCCC(C(=O)N[C@@H](Cc2ccc(-c3ccc(Cl)cc3Cl)cc2)C(=O)O)C1 (stereo partly drawn) [Example 1.95]
C-D | COc1ccc(Cl)cc1S(=O)(=O)N1CCCC(C(=O)N[C@@H](Cc2ccc(-c3ccccc3C)cc2)C(=O)O)C1 (stereo partly drawn) [Example 1.90]
C-D | COc1ccc(-c2ccc(C[C@H](NC(=O)C3CCCN(S(=O)(=O)c4ccc(C)cc4)C3)C(=O)O)cc2)cc1 (stereo partly drawn) [Example 1.76]
C-D | COc1ccc(-c2ccc(C[C@H](NC(=O)C3CCCN(S(=O)(=O)c4c(Cl)cccc4Cl)C3)C(=O)O)cc2)cc1 (stereo partly drawn) [Example 1.79]
C-D | O=C(N[C@@H](Cc1ccc(-c2ccccc2)cc1)C(=O)O)C1CCCN(C(=O)Cc2ccccc2)C1 (stereo partly drawn) [Example 1.7]
C-D | O=C(N[C@@H](Cc1ccc(-c2cc(Cl)ccc2Cl)cc1)C(=O)O)C1CCCN(C(=O)c2ccc3c(c2)OCO3)C1 (stereo partly drawn) [Example 1.52]
C-D | CCCNc1ncnc(N2CCCC(C(=O)N[C@@H](Cc3ccc(-c4ccc(Cl)c(Cl)c4)cc3)C(=O)O)C2)c1F (stereo partly drawn) [Example 2.47]
C-D | O=C(N[C@@H](Cc1ccc(-c2ccccc2)cc1)C(=O)O)C1CCCN(C(=O)c2cccc(Cl)c2)C1 (stereo partly drawn) [Example 1.8]
C-D | Cc1ccccc1-c1ccc(C[C@H](NC(=O)C2CCCN(S(=O)(=O)c3cc(Cl)cc(Cl)c3)C2)C(=O)O)cc1 (stereo partly drawn) [Example 1.92]
C-D | Cc1ccccc1-c1ccc(C[C@H](NC(=O)C2CCCN(c3ncnc(N4CCCCC4)c3F)C2)C(=O)O)cc1 (stereo partly drawn) [Example 2.26]
C-D | COc1ccccc1-c1ccc(C[C@H](NC(=O)C2CCCN(c3ncnc(N4CCCCC4)c3F)C2)C(=O)O)cc1 (stereo partly drawn) [Example 2.52]

Same assay, conditions: adhesion of CFSE-labeled Jurkat cells to recombinant human VCAM-1 (domains 1-3) coated plates; compounds as yielded by solid phase synthesis, purity about 40-90%; read-out: IC50

SMILES | IC50 [µM]
O=C(N[C@@H](Cc1ccc(NC(=O)N2CCOCC2)cc1)C(=O)O)C1CCCN(C(=O)Cc2ccccc2)C1 (stereo partly drawn) [Example 4.21] | 0.5 to 2
O=C(N[C@@H](Cc1ccc(NC(=O)N2CCOCC2)cc1)C(=O)O)C1CCCN(C(=O)OCc2ccccc2)C1 (stereo partly drawn) [Example 4.17] | 0.5 to 2
Cc1ccccc1-c1ccc(C[C@H](NC(=O)C2CCCN(C(=O)c3cccc(Cl)c3)C2)C(=O)O)cc1 (stereo partly drawn) [Example 1.31] | 2 to 10
COc1ccc(CC(=O)N2CCCC(C(=O)N[C@H](Cc3ccc(NC(=O)N4CCc5ccccc5C4)cc3)C(=O)O)C2)cc1 (stereo partly drawn) [Example 4.23] | 0.5 to 2
O=C(N[C@@H](Cc1ccc(-c2cc(Cl)ccc2Cl)cc1)C(=O)O)C1CCCN(c2ncnc(N3CCNCC3)c2F)C1 (stereo partly drawn) [Example 2.2, (2S)-3-(2′,5′-dichloro[1,1′-biphenyl]-4-yl)-2-[({1-[5-fluoro-6-(1-piperazinyl)-4-pyrimidinyl]-3-piperidinyl}carbonyl)amino]propanoic acid] | ≤ 0.5
COc1ccc(S(=O)(=O)N2CCCC(C(=O)N[C@@H](Cc3ccc(-c4ccccc4C)cc3)C(=O)O)C2)cc1OC (stereo partly drawn) [Example 1.88] | 2 to 10
O=C(N[C@@H](Cc1ccc(-c2cc(Cl)ccc2Cl)cc1)C(=O)O)C1CCCN(C(=O)c2ccccc2Cl)C1 (stereo partly drawn) [Example 1.54] | 2 to 10
Cc1ccccc1-c1ccc(C[C@H](NC(=O)C2CCCN(C(=O)OC3CCCC3)C2)C(=O)O)cc1 (stereo partly drawn) [Example 1.39] | 0.5 to 2
Cc1ccccc1-c1ccc(C[C@H](NC(=O)C2CCCN(S(=O)(=O)c3ccc4ccccc4c3)C2)C(=O)O)cc1 (stereo partly drawn) [Example 1.87] | 0.5 to 2

More lines, now with the values ahead:

IC50 [µM] | SMILES
0.5 to 2 | O=C(N[C@@H](Cc1ccc(NC(=O)N2CCOCC2)cc1)C(=O)O)C1CCCN(c2ncnc(NCc3ccccc3)c2F)C1 (stereo partly drawn) [Example 5.8]
≤ 0.5 | CN1CCN(C(=O)Nc2ccc(C[C@H](NC(=O)C3CCCN(C(=O)c4ccccc4F)C3)C(=O)O)cc2)CC1 (stereo partly drawn) [Example 4.51]
2 to 10 | Cc1ccc(S(=O)(=O)N2CCCC(C(=O)N[C@@H](Cc3ccc(NC(=O)NC4CCN(Cc5ccccc5)CC4)cc3)C(=O)O)C2)cc1 (stereo partly drawn) [Example 4.32]
2 to 10 | O=C(N[C@@H](Cc1ccc(NC(=O)N2CCN(c3ccccc3)CC2)cc1)C(=O)O)C1CCCN(c2ncnc(NCCc3c[nH]cn3)c2F)C1 (stereo partly drawn) [Example 5.6]
2 to 10 | CN(C)CCCNc1ncnc(N2CCCC(C(=O)N[C@@H](Cc3ccc(NC(=O)N4CCN(c5ccccc5)CC4)cc3)C(=O)O)C2)c1F (stereo partly drawn) [Example 5.15]
0.5 to 2 | CC1CCCCN1c1ncnc(N2CCCC(C(=O)N[C@@H](Cc3ccc(NC(=O)N4CCc5ccccc5C4)cc3)C(=O)O)C2)c1F (stereo partly drawn) [Example 5.41]
0.5 to 2 | COc1ccccc1NC(=O)N1CCCC(C(=O)N[C@@H](Cc2ccc(NC(=O)N3CCOCC3)cc2)C(=O)O)C1 (stereo partly drawn) [Example 4.63]
0.5 to 2 | O=C(N[C@@H](Cc1ccc(NC(=O)N2CCOCC2)cc1)C(=O)O)C1CCCN(c2ncnc(NCc3ccccn3)c2F)C1 (stereo partly drawn) [Example 5.47]
2 to 10 | O=C(Nc1ccc(C[C@H](NC(=O)C2CCCN(C(=O)Cc3ccccc3)C2)C(=O)O)cc1)NC1CCN(Cc2ccccc2)CC1 (stereo partly drawn) [Example 4.26]
0.5 to 2 | O=C(N[C@@H](Cc1ccc(NC(=O)N2CCN(c3ccccc3)CC2)cc1)C(=O)O)C1CCCN(c2ncnc(NC3CCN(Cc4ccccc4)CC3)c2F)C1 (stereo partly drawn) [Example 5.23]
2 to 10 | O=C(N[C@@H](Cc1ccc(NC(=O)N2CCOCC2)cc1)C(=O)O)C1CCCN(c2ncnc(NC3CCN(Cc4ccccc4)CC3)c2F)C1 (stereo partly drawn) [Example 5.22]
0.5 to 2 | O=C(N[C@@H](Cc1ccc(NC(=O)N2CCN(c3ccccc3)CC2)cc1)C(=O)O)C1CCCN(S(=O)(=O)Cc2ccccc2)C1 (stereo partly drawn) [Example 4.47]
0.5 to 2 | O=C(N[C@@H](Cc1ccc(NC(=O)N2CCOCC2)cc1)C(=O)O)C1CCCN(c2ncnc(N3CCCCCC3)c2F)C1 (stereo partly drawn) [Example 5.21]
2 to 10 | O=C(NCC(c1ccccc1)c1ccccc1)Nc1ccc(C[C@H](NC(=O)C2CCCN(S(=O)(=O)c3cccs3)C2)C(=O)O)cc1 (stereo partly drawn) [Example 4.36]
0.5 to 2 | CN(Cc1ccccc1)c1ncnc(N2CCCC(C(=O)N[C@@H](Cc3ccc(NC(=O)N4CCOCC4)cc3)C(=O)O)C2)c1F (stereo partly drawn) [Example 5.45]
0.5 to 2 | O=C(NCC(c1ccccc1)c1ccccc1)Nc1ccc(C[C@H](NC(=O)C2CCCN(C(=O)c3ccccc3F)C2)C(=O)O)cc1 (stereo partly drawn) [Example 4.56]
